Data as given in patent publication US12433868B2 (priority 2010, dated 2025).
pEC50: −log10 of the molar value.

Legend:
clinical = conditions: both, human, in vivo, po, 400 mg
Pichinde virus = type: cell-based
[1] = both, human, in vivo, po, 400 mg
Vaccinia virus (NYCBH) = assay: microbe, parasite or virus in culture; type: cell-based; conditions: Orthopoxvirus vaccinia, Vero
cytomegalovirus = type: cell-based
Zaire 79 strain of MPX = tested on: Zaire 79 strain of MPX; design: species or system cynomolgus monkeys (Macaca fascicularis); conditions: cynomolgus monkey, in vivo
[2] = tested on: Rift Valley fever virus (strain MP12); type: cell-based
[3] = tested on: respiratory syncytial virus; type: cell-based
vaccinia virus (VV) = conditions: read-out: 50% effective concentration [EC50], inhibition of virus replication, in vitro; cited from earlier work
camelpox = conditions: read-out: 50% effective concentration [EC50], inhibition of virus replication; cited from earlier work
ECTV, VV, or CV = conditions: mouse, in vivo; cited from earlier work
VV = conditions: orally twice a day at 15 or 50 mg/kg of body weight for 5 days; intravenous VV; cited from earlier work
cowpox virus (CV) = conditions: read-out: 50% effective concentration [EC50], inhibition of virus replication, in vitro; cited from earlier work
variola viruses = conditions: read-out: 50% effective concentration [EC50], inhibition of virus replication, in vitro; cited from earlier work
monkeypox = conditions: read-out: 50% effective concentration [EC50], inhibition of virus replication, in vitro; cited from earlier work
ectromelia virus (ECTV) = conditions: read-out: 50% effective concentration [EC50], inhibition of virus replication; cited from earlier work

O=C(NN1C(=O)C2C3C=CC(C4CC34)C2C1=O)c1ccc(C(F)(F)F)cc1 (single isomer, unassigned) [Form I, 4-trifluoromethyl-N-(3,3a,4,4a,5,5a,6,6a-octahydro-1,3-dioxo-4,6-ethenocycloprop[f]isoindol-2(1H)-yl)-benzamide]
Cmax (clinical; Median): 1170 ng/mL | Tmax (clinical; Median): 3.5 h | half-life (clinical; t1/2, Median): 25.1 h | inhibition of replication of unrelated virus (Pichinde virus): do not inhibit | AUC0-τ, Mean [1]: 15624.5 ng·h/mL | AUC0-∞, Mean [1]: 19922.02 ng·h/mL | Cmax, Mean [1]: 1068.9 ng/mL | Tmax, Mean [1]: 3.8 h | t1/2, Mean [1]: 27.446 h | inhibition at 5 µM (Vaccinia virus (NYCBH); 72 h, read-out: inhibition of vaccinia virus-induced CPE): > 50% | pEC50 (Vaccinia virus (NYCBH); read-out: EC50 in the CPE assay): 7.30 | inhibition of replication of unrelated virus (cytomegalovirus): do not inhibit | amount of viral DNA compared to vehicle-treated animals (Zaire 79 strain of MPX): significantly decrease | reduction in the level of virus replication compared to vehicle-treated group (Zaire 79 strain of MPX): more than 1,000 fold | survival (Zaire 79 strain of MPX): survive | inhibition of replication of unrelated virus [2]: do not inhibit | inhibition of replication of unrelated virus [3]: do not inhibit

O=C(NN1C(=O)C2C3C=CC(C4CC34)C2C1=O)c1ccc(C(F)(F)F)cc1 (single isomer, unassigned) [Form V, 4-trifluoromethyl-N-(3,3a,4,4a,5,5a,6,6a-octahydro-1,3-dioxo-4,6-ethenocycloprop[f]isoindol-2(1H)-yl)-benzamide]
AUC (clinical; AUC0-τ, Mean): 20100 ng·h/mL | AUC(0-inf) (clinical; AUC0-∞, Mean): 22000 ng·h/mL | Cmax (clinical; Mean): 1230 ng/mL | Tmax (clinical; Mean): 3.8 h | half-life (clinical; t1/2, Mean): 29.2 h | Cmax, Median [1]: 1180 ng/mL | Tmax, Median [1]: 4 h | t1/2, Median [1]: 16.647 h

O=C(NN1C(=O)C2C3C=CC(C4CC34)C2C1=O)c1ccc(C(F)(F)F)cc1 (stereo not shown) [ST-246, 4-trifluoromethyl-N-(3,3a,4,4a,5,5a,6,6a-octahydro-1,3-dioxo-4,6-ethenocycloprop[f]isoindol-2(1H)-yl)-benzamide]
pEC50 (vaccinia virus (VV)): ≥ 7.15 | pEC50 (camelpox): ≥ 7.15 | preventing or reducing mortality (ECTV, VV, or CV): highly effective in preventing or reducing mortality | toxicity in animal models (ECTV, VV, or CV): nontoxic | tail lesions (VV): significantly reduced | pEC50 (cowpox virus (CV)): ≥ 7.15 | pEC50 (variola viruses): ≥ 7.15 | pEC50 (monkeypox): ≥ 7.15 | pEC50 (ectromelia virus (ECTV)): ≥ 7.15
